In US20050020550A1, “Selective testicular 11beta-HSD inhibitors and methods of use thereof” (priority 2003, published 2005):

Experiments:
[1] = biological target: T1, 11β-HSD2 Dehydrogenase (Homo sapiens, UniProt P80365); test: Inhibition of 11β-HSD2 dehydrogenase (Table 1); format: biochemical
T1 sequence (P80365 1-405): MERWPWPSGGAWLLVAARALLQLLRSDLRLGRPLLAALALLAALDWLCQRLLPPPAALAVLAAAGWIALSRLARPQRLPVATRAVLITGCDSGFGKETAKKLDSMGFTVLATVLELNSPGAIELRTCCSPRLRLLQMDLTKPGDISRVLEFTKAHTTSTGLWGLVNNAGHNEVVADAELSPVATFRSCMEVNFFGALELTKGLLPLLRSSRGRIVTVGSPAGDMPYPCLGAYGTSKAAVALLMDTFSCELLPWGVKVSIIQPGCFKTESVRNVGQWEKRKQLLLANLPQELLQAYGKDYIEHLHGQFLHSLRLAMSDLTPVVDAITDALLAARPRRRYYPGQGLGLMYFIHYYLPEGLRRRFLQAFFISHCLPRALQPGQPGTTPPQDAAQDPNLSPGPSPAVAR

[2] = biological target: T2, 11β-HSD1 Reductase (Rattus norvegicus, UniProt P16232); test: Inhibition of 11β-HSD1 reductase (Table 1); format: cell-based
T2 construct: an enzyme present in testicular Leydig cells; endogenous in cells; host or cells: freshly prepared rat Leydig cells
T2 sequence (P16232 whole entry): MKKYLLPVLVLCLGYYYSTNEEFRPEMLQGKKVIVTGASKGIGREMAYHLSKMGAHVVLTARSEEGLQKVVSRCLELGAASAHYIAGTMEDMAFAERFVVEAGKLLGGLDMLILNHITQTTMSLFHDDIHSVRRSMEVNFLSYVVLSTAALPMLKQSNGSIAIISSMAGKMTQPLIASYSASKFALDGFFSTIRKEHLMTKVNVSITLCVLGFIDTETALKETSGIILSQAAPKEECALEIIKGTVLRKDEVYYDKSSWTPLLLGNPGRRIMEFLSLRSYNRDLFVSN

[3] = biological target: T3, 11β-HSD1 Dehydrogenase (Rattus norvegicus, UniProt P16232); test: Inhibition of 11β-HSD1 dehydrogenase (Table 1); format: cell-based
T3 construct: an enzyme present in testicular Leydig cells; endogenous in cells; host or cells: freshly prepared rat Leydig cells
T3 sequence (P16232 whole entry): as above

[4] = system: rat aortic rings; test: Contractile response of rat aortic rings to phenylephrine; conditions: rat aortic rings incubated with the steroid, compared to controls
Method: Male Sprague-Dawley (150-200 g) rats were anesthetized with pentobarbital (50 mg/kg IP), and a median sternotomy was performed followed by the rapid removal of the thoracic aorta. The adventitia was removed, but the endothelium was left intact. The aorta was cut into 2-3 mm rings and individual rings were placed into a single well of a twenty four well culture plate and incubated at 37° C. under 95% O2-5% CO2. Each well contained 1 mL of DMEM/F12 containing 1% fetal bovine serum, streptomycin (100 μg/ml), penicillin (100 units/ml) and amphotericin (0.25 μg/ml). Aortic rings were incubated for 24 hours prior to contractility measurements with the following combinations of steroids, and antisense/nonsense oligonucleotides (3 μmol/L): • Corticosterone (10 nmol/L)+11β-HSD2 antisense or 11β-HSD2 nonsense oligomer • Corticosterone (10 nmol/L)+11β-HSD1 antisense or 11β-HSD1 nonsense oligomer • In 11-dehydrocorticosterone experiments with vehicle alone • 11-dehydrocorticosterone (100 nmol/L)+11β-HSD1 Antisense or 11β-HSD1 nonsense oligomer
Antisense phosphorothioate oligonucleotides, targeted to block either 11β-HSD2 or 11β-HSD1 gene expression, were obtained from Research Genetics, Huntsville Ala. Antisense oligomers complementary to 20 bp sequences spanning the ribosome binding/translation start site were used. Oligomer sequences were: 5′-CATAACTGCCGTCCAACAGC-3′ (SEQ ID No.: 2) for 11β-HSD1 Antisense and 5′-AGCCCAGCGCTCCATGACTT-3′ (SEQ ID No. 3) for 11β-HSD2 antisense. In control experiments the corresponding sense sequence was used as the nonsense oligomer. Antisense and nonsense oligomers were added directly to each well at 20 μg/10:1 sterile H2O per well for a final concentration of 3 μmol/L.
For contraction measurements, aortic rings were suspended by tungsten wires with 1 g of tension and placed in a vessel bath containing serum free DMEM/F 12 media at 37° C. aerated with 95% O2-5% CO2, at pH 7.4. Vessels were equilibrated for 20 minutes and then tested with phenylephrine (1 nmol/L−10 μmol/L). Although phenylephrine is structurally not a catecholamine, it is considered to be a functional catecholamine as it activates […]. Due to its favorable stability characteristics, it is widely used as a catecholamine substitute in experiments of this nature. The intensity of contraction was assessed by use of a Narishige micromanipulator and model FT03 force transducer (Grass Instrument Co. West Warwick, R.I.). Measurements were recorded on computer using the Labview 4.1 Virtual Instrument System (National Instruments, Austin, Tex.).

In the case of `C[C@]12CCC(=O)C=C1CC[C@@H]1[C@H]2C(=O)C[C@]2(C)C(=O)CC[C@H]12` (stereo in doubt) [11-Keto-androstenedione], the “11β-HSD2 Dehydrogenase (inhibition)” value [1] is reported as “No Inhibition”, the “11β-HSD1 Reductase (inhibition)” value [2] is reported as “Selective Inhibitor” and the “11β-HSD1 Dehydrogenase (inhibition)” value [3] is reported as “No Inhibition”.
`C[C@]12CC[C@@H]3[C@@H]([C@@H](O)C[C@]4(C=O)[C@@H](C(=O)CO)CC[C@H]34)[C@@]1(C)CC[C@H](O)C2` [3α,5α-reduced aldosterone] was tested, and the “11β-HSD2 Dehydrogenase (inhibition)” value [1] was “Potent Inhibitor”, the “11β-HSD1 Reductase (inhibition)” value [2] was “No Inhibition” and the “11β-HSD1 Dehydrogenase (inhibition)” value [3] was “Moderate Inhibitor”.
For `C[C@]12CC[C@H](O)C[C@@H]1CC[C@@H]1[C@@H]2C(=O)C[C@]2(C)C(=O)CC[C@@H]12` [3α,5α-reduced-11-keto-androstenedione], the “11β-HSD1 Reductase (inhibition)” value [2] was “Selective Inhibitor” and the “11β-HSD1 Dehydrogenase (inhibition)” value [3] was “No Inhibition”.
In the case of `CC(=O)[C@H]1CC[C@@H]2[C@@H]3CC[C@@H]4C[C@@H](O)CC[C@]4(C)[C@@H]3C(=O)C[C@]12C` [3α,5α-reduced-11-keto-progesterone], the “11β-HSD2 Dehydrogenase (inhibition)” value [1] is reported as “Potent Inhibitor”, the “11β-HSD1 Reductase (inhibition)” value [2] is reported as “Selective Inhibitor” and the “11β-HSD1 Dehydrogenase (inhibition)” value [3] is reported as “No Inhibition”.
In the case of `C[C@]12CC[C@H](O)C[C@@H]1CC[C@H]1[C@@H]3CC[C@H](O)[C@@]3(C)CC(=O)[C@@H]12` [3α,5α-reduced-11-keto-testosterone], the “11β-HSD1 Reductase (inhibition)” value [2] is reported as “Selective Inhibitor” and the “11β-HSD1 Dehydrogenase (inhibition)” value [3] is reported as “No Inhibition”.
`C[C@]12CC[C@H](O)C[C@H]1CC[C@@H]1[C@H]2[C@@H](O)C[C@]2(C)C(=O)CC[C@H]12` [3α,5α-reduced- 11β-OH—androstenedione] was tested, and the “11β-HSD2 Dehydrogenase (inhibition)” value [1] was “Potent Inhibitor (Non-Selective)”, the “11β-HSD1 Reductase (inhibition)” value [2] was “No Inhibition” and the “11β-HSD1 Dehydrogenase (inhibition)” value [3] was “Moderate Inhibitor”.
`CC(=O)[C@H]1CC[C@@H]2[C@@H]3CC[C@@H]4C[C@@H](O)CC[C@]4(C)[C@@H]3[C@@H](O)C[C@]12C` [3α,5α-reduced- 11β-OH—progesterone] was tested, and the “11β-HSD2 Dehydrogenase (inhibition)” value [1] was “Potent Inhibitor (Non-Selective)”, the “11β-HSD1 Reductase (inhibition)” value [2] was “No Inhibition” and the “11β-HSD1 Dehydrogenase (inhibition)” value [3] was “Potent Inhibitor (Non-Selective)”.
`C[C@]12CC[C@H](O)C[C@H]1CC[C@@H]1[C@H]2[C@@H](O)C[C@@]2(C)[C@@H]1CC[C@@H]2O` [3α,5α-reduced- 11β-OH—testosterone] was tested, and the “11β-HSD2 Dehydrogenase (inhibition)” value [1] was “Potent Inhibitor (Non-Selective)”, the “11β-HSD1 Reductase (inhibition)” value [2] was “No Inhibition” and the “11β-HSD1 Dehydrogenase (inhibition)” value [3] was “Potent Inhibitor (Non-Selective)”.
In the case of `C[C@]12CC[C@H](O)C[C@@H]1CC[C@@H]1[C@@H]2[C@@H](O)C[C@]2(C)[C@@H](C(=O)CO)CC[C@@H]12` [3α,5α-reduced- corticosterone], the “11β-HSD2 Dehydrogenase (inhibition)” value [1] is reported as “Potent Inhibitor”, the “11β-HSD1 Reductase (inhibition)” value [2] is reported as “No Inhibition” and the “11β-HSD1 Dehydrogenase (inhibition)” value [3] is reported as “Potent Inhibitor”.
For `C[C@]12CC[C@H](O)C[C@@H]1CC[C@H]1[C@@H]3CC[C@H](C(=O)CO)[C@@]3(C)CC(=O)[C@@H]12` [3α,5α-tetrahydro-11-dehydro-corticosterone], the “11β-HSD2 Dehydrogenase (inhibition)” value [1] was “Potent Inhibitor”, the “11β-HSD1 Reductase (inhibition)” value [2] was “Potent Inhibitor” and the “11β-HSD1 Dehydrogenase (inhibition)” value [3] was “No Inhibition”.
In the case of `CC(=O)[C@H]1CC[C@@H]2[C@@H]3CC[C@@H]4C[C@@H](O)CC[C@]4(C)[C@@H]3[C@@H](O)C[C@]12C` [3α,5β-reduced- 11β-OH—progesterone], the “11β-HSD2 Dehydrogenase (inhibition)” value [1] is reported as “No Inhibition”, the “11β-HSD1 Reductase (inhibition)” value [2] is reported as “No Inhibition” and the “11β-HSD1 Dehydrogenase (inhibition)” value [3] is reported as “Moderate Inhibitor”.
For `C[C@]12CC[C@H](O)C[C@H]1CC[C@@H]1[C@H]2[C@@H](O)C[C@@]2(C)[C@@H]1CC[C@@H]2O` [3α,5β-reduced- 11β-OH—testosterone], the “11β-HSD2 Dehydrogenase (inhibition)” value [1] was “No Inhibition”, the “11β-HSD1 Reductase (inhibition)” value [2] was “No Inhibition” and the “11β-HSD1 Dehydrogenase (inhibition)” value [3] was “Moderate Inhibitor”.
`C[C@]12CCC(=O)C[C@@H]1CC[C@@H]1[C@@H]2[C@@H](O)C[C@]2(C)[C@@H](C(=O)CO)CC[C@@H]12` [5α-dihydro- corticosterone] was tested, and the “11β-HSD2 Dehydrogenase (inhibition)” value [1] was “Potent Inhibitor”, the “11β-HSD1 Reductase (inhibition)” value [2] was “No inhibition” and the “11β-HSD1 Dehydrogenase (inhibition)” value [3] was “Potent Inhibitor”.
For `C[C@]12CC(=O)[C@@H]3[C@@H](CCC4=CC(=O)CC[C@@]43C)[C@H]1CC[C@@H]2O` [11-Keto-testosterone], the “11β-HSD2 Dehydrogenase (inhibition)” value [1] was “No Inhibition”, the “11β-HSD1 Reductase (inhibition)” value [2] was “Selective Inhibitor” and the “11β-HSD1 Dehydrogenase (inhibition)” value [3] was “No Inhibition”.
With `C[C@]12CC(=O)[C@H]3[C@@H](CCC4=CC(=O)CC[C@@]43C)[C@@H]1CC[C@@H]2C(=O)CO` [11-dehydro-corticosterone, reference compound] the “effect of the steroid on contractile responses to phenylephrine” value [4] was “amplifies the contractile responses”.
In the case of `CC(=O)[C@H]1CC[C@@H]2[C@@H]3CCC4=CC(=O)CC[C@]4(C)[C@@H]3[C@@H](O)C[C@]12C` [11β-OH—progesterone], the “11β-HSD1 Reductase (inhibition)” value [2] is reported as “No Inhibition” and the “11β-HSD1 Dehydrogenase (inhibition)” value [3] is reported as “Potent Inhibitor (Non-Selective)”.
`C[C@]12C[C@H](O)[C@@H]3[C@@H](CCC4=CC(=O)CC[C@@]43C)[C@H]1CC[C@@H]2O` [11β-OH—testosterone] was tested, and the “11β-HSD2 Dehydrogenase (inhibition)” value [1] was “Inhibitor (Non-Selective)”, the “11β-HSD1 Reductase (inhibition)” value [2] was “No Inhibition” and the “11β-HSD1 Dehydrogenase (inhibition)” value [3] was “Inhibitor (Non-Selective)”.
In the case of `C[C@H](CCC(=O)O)[C@H]1CC[C@H]2[C@@H]3[C@H](O)C[C@@H]4C[C@H](O)CC[C@]4(C)[C@H]3CC[C@]12C` [chenodeoxycholic acid], the “11β-HSD2 Dehydrogenase (inhibition)” value [1] is reported as “No Inhibition”, the “11β-HSD1 Reductase (inhibition)” value [2] is reported as “No Inhibition” and the “11β-HSD1 Dehydrogenase (inhibition)” value [3] is reported as “Selective inhibitor”.
In the case of `C[C@]12C[C@H](O)[C@H]3[C@@H](CCC4=CC(=O)CC[C@@]43C)[C@@H]1CC[C@@H]2C(=O)CO` [corticosterone, reference compound], the “effect of the steroid on contractile responses to phenylephrine” value [4] is reported as “amplified contractile responses”.
